# Data: article PMC12040169 (PLOS Biology, 2025)
# Assay: in vitro
# Conditions: human, hela cells, % viability
row,Structure (SMILES),"viability at 28.5 h, 10 µM"
1,O=C(c1cc[nH]n1)N1CCCCC1c1ncc(-c2cccc(F)c2)[nH]1 (stereo not shown) [CBK291217],94.6%
2,COc1cc(OC)cc(C(=O)Nc2cc(C)c3c(=O)oc4ccccc4c3n2)c1 [CBK291221],95.2%
3,Cc1[nH]c(=O)c(C(=O)N(C)C(C)c2ccc(Cl)cc2)cc1-c1ccc(O)cc1 (stereo not shown) [CBK291225],98.8%
4,COc1cc(CN2Cc3cccc(C(=O)O)c3C2=O)cc(OC)c1OC [CBK291227],108%
5,Cc1nc2ncnc(N3CCc4ccccc43)c2[nH]1 [CBK291228],89.2%
6,Cc1cc(NC(=O)COc2ccc(Cl)cc2)nc2c1c(=O)oc1ccccc12 [CBK291230],92.9%
7,COc1ccc(C(=O)Nc2cc(C)c3c(=O)oc4ccccc4c3n2)c(OC)c1 [CBK291231],94.5%
8,CN(C)CCCn1cnc2c1c(=O)[nH]c(=O)n2Cc1ccccc1 [CBK291234],95.3%
9,CN(C)CCn1cnc2c1c(=O)[nH]c(=O)n2Cc1ccccc1 [CBK291235],96.9%
10,COc1ccc(CN2Cc3cccc(C(=O)O)c3C2=O)cc1OC [CBK291237],83.5%
11,Cc1cc(NC(=O)c2cccc(Br)c2)nc2c1c(=O)oc1ccccc12 [CBK291238],94.3%
12,CCOc1ccccc1C(=O)Nc1cc(C)c2c(=O)oc3ccccc3c2n1 [CBK291240],87.4%
13,CCc1c(C(=O)NC(C)c2cccc(Cl)c2)cnc2cc(O)nn12 (stereo not shown) [CBK291243],95%
14,CCc1c(C(=O)Nc2ccc(C(F)(F)F)cc2)cnc2ncnn12 [CBK291244],90.4%
15,O=C(O)c1cccc2c1C(=O)N(Cc1cccs1)C2 [CBK291246],95.3%
16,Cc1cc(NC(=O)C2CCCCC2)nc2c1c(=O)oc1ccccc12 [CBK291247],83.1%
17,Cc1ccc(Nc2ncc(C(=O)NCCCN3CCN(c4cccc(Cl)c4)CC3)c3ccccc23)cc1Cl [CBK291251],90.1%
18,CC(c1ccccc1)N1Cc2cccc(C(=O)O)c2C1=O (stereo not shown) [CBK291252],97.6%
19,CC1(c2cc(F)ccc2F)NC(=O)N(c2ccncc2)C1=O (stereo not shown) [CBK291253],92.9%
20,COc1ccc(Oc2ncnc3c2[nH]c2ccccc23)cc1 [CBK291254],88.9%

row,Structure (SMILES),"viability at 28.5 h, 10 µM"
1,O=c1cc(O)c2ccccc2n1Cc1ccccc1Cl [CBK291255],93.4%
2,Cc1cc(NC(=O)c2cc3ccccc3o2)nc2c1c(=O)oc1ccccc12 [CBK291256],90.2%
3,Cc1cc(NC(=O)CN2CCC(Cc3ccccc3)CC2)nc2c1c(=O)oc1ccccc12 [CBK291261],87.2%
4,Cc1cc(NC(=O)c2ccc(Cl)c([N+](=O)[O-])c2)nc2c1c(=O)oc1ccccc12 [CBK291263],96.7%
5,O=C1COc2ccccc2C/C=C/CC2(CCN(C(=O)c3c[nH]cn3)CC2)C(=O)NCCN1 [CBK291990],98.3%
6,O=C1NCCNC(=O)C2(C/C=C/COc3ccccc31)CCCN(C(=O)c1cnco1)C2 (stereo not shown) [CBK291993],106%
7,Cc1noc(C)c1C(=O)N1CC[C@H]2NC(=O)c3ccccc3OCC/C=C/C[C@H]2C1 [CBK291994],100%
8,O=C1NCCNC(=O)C2(C/C=C/COc3ccccc31)CCN(C(=O)CCC1CCCC1)CC2 [CBK291995],118%
9,O=C1COc2ccccc2C/C=C/CC2(CCNCC2)C(=O)NCCN1 [CBK291996],105%
10,O=C1COc2ccccc2C/C=C/CC2(CCN(C(=O)c3cnccn3)CC2)C(=O)NCCN1 [CBK291997],106%
11,O=C1NCCNC(=O)C2(C/C=C/COc3ccccc31)CCN(C(=O)c1ccc3[nH]nnc3c1)CC2 [CBK292000],106%
12,O=C(O)c1ccc(CN2CCC3(C/C=C/CNC(=O)c4ccccc4OCCNC3=O)CC2)cc1 [CBK292002],109%
13,CCC(=O)N1CCC2(C/C=C/CC(=O)Nc3cccc(n3)C3CN(CCO3)C(=O)CN(C)C2=O)CC1 (stereo not shown) [CBK292004],105%
14,Cc1cc(C(=O)N2CC[C@H]3NC(=O)c4ccccc4OCCCCC[C@H]3C2)no1 [CBK292005],91.8%
15,O=C1NC/C=C/CC2(CCN(C(=O)CCc3cccnc3)CC2)C(=O)NCCOc2ccccc21 [CBK292007],88.3%
16,O=C1COc2ccccc2CCCCC2(CCCN(CC(=O)N3CCCC3)C2)CN1 (stereo not shown) [CBK292009],105%
17,Cc1cnn(CC(=O)N2CC[C@H]3NC(=O)c4ccccc4OCCCCC[C@H]3C2)c1 [CBK292010],107%
18,CC(=O)NCC(=O)N1CCC[C@@H]2[C@H]1CCCCc1ccccc1OCC(=O)N2C [CBK292011],117%
19,COc1ccc(CN2CC[C@H]3NC(=O)CNC(=O)C4(C/C=C/C[C@H]3C2)CCN(C(C)=O)CC4)cc1 [CBK292013],90.4%
20,O=C1NCC2(C/C=C/CCOc3ccccc31)CCN(C(=O)CCN1CCCC1=O)CC2 [CBK292016],99.3%

row,Structure (SMILES),"viability at 28.5 h, 10 µM"
1,O=C1NCC2(C/C=C/CCOc3ccccc31)CCN(C(=O)CCN1CCCC1)CC2 [CBK292020],87.5%
2,Cc1ccc(CN2CCCC3(C/C=C/COc4ccccc4C(=O)NCCNC3=O)C2)cn1 (stereo not shown) [CBK292022],94%
3,O=C1NCCNC(=O)C2(C/C=C/COc3ccccc31)CCN(Cc1ccccc1F)CC2 [CBK292024],101%
4,COc1cccc(CN2CCC3(C/C=C/COc4ccccc4C(=O)NCCNC3=O)CC2)c1F [CBK292025],108%
5,CN1CCOc2ccccc2C(=O)NC/C=C/CC2(CCCNC2)C1=O (stereo not shown) [CBK292027],107%
6,Cn1nccc1CCC(=O)N1CC[C@H]2NC(=O)c3ccccc3OCCCCC[C@H]2C1 [CBK292028],97.4%
7,Cn1cnc(C(=O)N2CC[C@H]3NC(=O)c4ccccc4OCCCCC[C@H]3C2)c1 [CBK292031],88.9%
8,O=C1COc2ccccc2C/C=C/CC2(CCCN(C(=O)CN3CCCC3=O)C2)CN1 (stereo not shown) [CBK292032],98.1%
9,O=C1COc2ccccc2CCCC[C@@H]2CNCC[C@H]2N1 [CBK292038],105%
10,CNC(=O)CN1CCC[C@@H]2NC(=O)COc3ccccc3C(=O)N[C@@H]3CCOC[C@@H]3C/C=C/C[C@@H]21 [CBK292040],100%
11,O=C1N[C@@H]2CCN(C(=O)Cc3ccc(O)cc3)C[C@@H]2C/C=C/CCOc2ccccc21 [CBK292043],103%
12,O=C1COc2ccccc2CCCC[C@@H]2CN(C(=O)CCN3CCCC3=O)CC[C@H]2N1 [CBK292044],91.8%
13,CNC(=O)CN1CC[C@H]2NC(=O)c3ccccc3OCC/C=C/C[C@H]2C1 [CBK292049],110%
14,O=C1CNC(=O)C2(C/C=C/C[C@H]3COCC[C@@H]3N1)CCN(C(=O)CCc1cccnc1)CC2 [CBK292051],107%
15,CN1CC(=O)N2CCOC(C2)c2cccc(n2)NC(=O)C/C=C/CC2(CCNCC2)C1=O (stereo not shown) [CBK292053],102%
16,CC(=O)N1CCC[C@H]2NC(=O)CNC(=O)C3(C/C=C/C[C@H]21)CCN(Cc1ccccc1O)CC3 [CBK292054],99.3%
17,NC(=O)CN1CCCC2(CCCCc3ccccc3OCC(=O)NC2)C1 (stereo not shown) [CBK292058],106%
18,NC(=O)CCC(=O)N1CCC2(C/C=C/CCOc3ccccc3C(=O)NCCCNC2=O)CC1 [CBK292059],91.7%
